Results: PMC10591299, “Targeting SHP2 with an Active Site Inhibitor Blocks Signaling and Breast Cancer Cell Phenotypes” (ACS Bio & Med Chem Au, 2023)

Assays:
MDA-MB468 cells [1] = test: Basal pAkt and pERK1/2 signaling by immunoblotting in MDA-MB468 cells; assay type: cell-based; conditions: Homo sapiens, MDA-MB-468; MDA-MB468, 48 h treatment, band density pAkt and pERK1/2; read-out: IC50 for SHP2 mediated Akt and ERK1/2 activation
Description: Since SHP2 is an essential mediator of mitogenic and cell survival signaling in breast cancer cells, we determined the effect of CNBCA treatment on activation of ERK1/2 and Akt in the HER2-positive BT474 and in the triple-negative MDA-MB468 cell lines. Cells growing in 2D culture were treated with varying concentrations of CNBCA, ranging from 0.250 to 2.0 μM, for 48 h, and total cell lysates were analyzed by immunoblotting (IB) with antibodies that recognize the activated forms of ERK1/2 (pERK1/2) and Akt (pAkt).

SHP2 = biological target: T1, SHP2 (Homo sapiens, UniProt Q06124); test: Cellular thermal shift assay (CETSA), SHP2 immunoblot; assay type: binding; conditions: 100 μM CNBCA, cell lysate
T1 construct: endogenous in cells
T1 sequence (Q06124 1-593): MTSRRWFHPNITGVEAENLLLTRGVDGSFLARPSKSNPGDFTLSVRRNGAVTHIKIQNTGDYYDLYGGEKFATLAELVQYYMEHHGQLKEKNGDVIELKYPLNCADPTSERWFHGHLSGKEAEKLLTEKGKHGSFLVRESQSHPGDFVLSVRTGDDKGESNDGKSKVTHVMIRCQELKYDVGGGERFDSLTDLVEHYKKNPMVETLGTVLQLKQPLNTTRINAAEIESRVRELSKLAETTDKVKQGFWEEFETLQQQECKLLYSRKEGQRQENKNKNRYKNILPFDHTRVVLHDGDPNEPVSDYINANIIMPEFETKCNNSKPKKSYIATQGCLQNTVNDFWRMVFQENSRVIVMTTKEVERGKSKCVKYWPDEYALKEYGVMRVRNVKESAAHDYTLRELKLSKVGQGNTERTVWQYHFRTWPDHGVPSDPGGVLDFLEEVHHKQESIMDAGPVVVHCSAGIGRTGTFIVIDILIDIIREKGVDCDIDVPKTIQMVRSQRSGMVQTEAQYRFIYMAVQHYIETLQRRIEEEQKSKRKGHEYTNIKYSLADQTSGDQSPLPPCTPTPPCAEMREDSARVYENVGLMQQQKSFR
Description: First, we used the cellular thermal shift assay (CETSA) to show whether CNBCA binds to endogenous full-length SHP2 under cellular contexts. The CETSA assay is based on the principle that specific inhibitors bind to a target protein and confer relative stability from heat-induced denaturation and precipitation when compared to a nontarget protein present in the same milieu.[34] Accordingly, we performed CETSA to test the effect of CNBCA on the SHP2 protein stability and compared it with the nontarget PTP1B protein as described in the materials and methods.
After heat treatment, supernatants were analyzed by immunoblotting (IB) for SHP2 and the nontarget phosphatase PTP1B. […] To provide semiquantitative data, band densities of both SHP2 and PTP1B were measured and presented as bar graph. […] On the other hand, the nontarget protein PTP1B was reduced to approximately 50% at 49 °C, to 25% at 55 °C, and to less than 10% at 58 °C (Figure 3B and D).
For the CETSA study, total protein extracts (TPE) prepared from two breast cancer cells, the triple-negative MDA-MB468 and the HER2-positive JIMT-1 cells, were used. Briefly, TPE from the two cell lines were cleared by centrifugation, mixed with CNBCA at 100 μM concentration (the maximum amount used in the IC50 studies), and incubated for 10 min at room temperature to allow binding. The mixture was then divided into 100 μL aliquots, treated with heat for 10 min at different temperatures, ranging from 37 to 64 °C that differ by 3 °C intervals, cooled on ice for 10 min, centrifuged at 20,000g for 20 min to remove precipitated proteins, and the supernatants analyzed by immunoblotting (IB) for SHP2 and the nontarget PTP, PTP1B. Aliquots that were mixed with CNBCA, but not treated with heat were used as positive controls for comparison.

BT474 cells = test: Mammosphere formation in suspension culture, BT474; assay type: cell-based; conditions: BT474, 500 nM, 10 days, versus vehicle
Description: (§1) Since SHP2 is essential for the growth and transformation of BC cells,[8],[9],[11] we determined the effect of SHP2 inhibition with CNBCA in 2D and 3D culture systems. For the effect on cell growth, BC cells (BT474 and MDA-MB468) were seeded in 2D culture and treated with a single concentration of CNBCA (500 nM), the concentration that provided a 50% inhibition of SHP2 mediated signaling in BT474 cells. Images were collected at the start and every 24 h for a total of 72 h (3 days). […] For effect on anchorage independent growth, approximately 10^6 cells were seeded in soft agar as described previously,[24] and treated with CNBCA at 500 nM concentration for 10 days with refeeding and adjustment of compound concentration. […] Finally, the effect of CNBCA on cancer stem cell properties was determined by the suspension assay, in which only cells with stem-like properties only can grow and form mammospheres.[7],[24],[36] Approximately 10^6 cells were seeded in nonadherent 6 cm plates and treated with CNBCA (500 nM) for 10 days with complementation of media and drug concentration.
(§2) To further evaluate the anti-breast cancer cell effect of CNBCA, we treated cells seeded in a suspension culture known as the mammosphere assay. In this assay, cells with cancer stem cell properties can grow and form sphere-like cellular aggregates known as mammospheres.[7],[38] […]

MDA-MB468 cells [2] = test: Mammosphere formation in suspension culture, MDA-MB468; assay type: cell-based; conditions: MDA-MB468, 500 nM, 10 days, versus vehicle
Description: as §1, §2

IC50 (MDA-MB468 cells [1]): ~1 µM
SHP2 stabilized in solution (band density) (SHP2; heat 49 °C 10 min): ~100%
SHP2 stabilized in solution (band density) (SHP2; heat 52 °C 10 min): 95%
SHP2 stabilized in solution (band density) (SHP2; heat 55 °C 10 min): 70%
SHP2 stabilized in solution (band density) (SHP2; heat 58 °C 10 min): 45%
SMILES: CCCCCCCCCOc1ccc(-c2ccc(C(=O)O)cc2)cc1CCCC(=O)O [CNBCA, 3′-(3-carboxypropyl)-4′-(nonyloxy)-[1,1′-biphenyl]-4-carboxylic acid]
mammosphere formation (BT474 cells): fewer and smaller mammospheres
mammosphere formation (MDA-MB468 cells [2]): fewer and smaller mammospheres
